Reference: patent publication US8143374B2, “Polypeptide derivatives of parathyroid hormone (PTH)” (The General Hospital Corporation, priority 2006, dated 2012)
Where two headings read alike, the source gives them in different places. Where no end group is shown, it is not given here.

How the values were obtained:
PTHR-delNt = biological target: T1, PTHR-delNt (Homo sapiens, UniProt Q03431, DEL24-181); assay: Competition binding in COS-7 cell membranes with 125I-[Aib1,3,M]PTH(1-15)NH2 tracer; settings: for IC50: COS-7 membranes cotransfected with negative-dominant Gαs, read-out: PTHR-delNT (COS-7) IC50
T1 construct: expressed in transfected cells; host or cells: COS-7 cells, transient co-transfection; membranes prepared
T1 sequence (Q03431 with tags, fused parts or gaps DEL24-181): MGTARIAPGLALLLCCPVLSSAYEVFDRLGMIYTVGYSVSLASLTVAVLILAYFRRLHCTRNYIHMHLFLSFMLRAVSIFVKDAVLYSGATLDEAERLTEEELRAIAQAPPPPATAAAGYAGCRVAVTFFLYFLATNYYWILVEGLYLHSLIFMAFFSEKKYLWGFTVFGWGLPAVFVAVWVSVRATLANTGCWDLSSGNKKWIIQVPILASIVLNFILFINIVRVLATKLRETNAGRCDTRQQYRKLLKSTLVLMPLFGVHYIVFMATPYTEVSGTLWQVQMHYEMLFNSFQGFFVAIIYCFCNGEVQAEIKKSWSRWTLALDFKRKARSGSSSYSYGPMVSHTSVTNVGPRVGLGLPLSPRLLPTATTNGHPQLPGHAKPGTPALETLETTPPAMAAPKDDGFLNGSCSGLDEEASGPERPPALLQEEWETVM
Summary of the method: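 Membranes (20 µg/well) from COS-7 cells co-transfected with human PTHR lacking residues 24–181 plus dominant-negative Gαs, incubated 90 min at 21 °C with 125I-[Aib1,3,M]PTH(1-15)NH2 and unlabeled peptide (3×10^−9 to 1×10^−5 M), then filtered and gamma-counted. Non-specific binding with 1×10^−6 M [Aib1,3,M]PTH(1-15)NH2; IC50 by four-parameter logistic fit, extrapolated to reference maximal inhibition where incomplete.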

ROS 17/2.8 cells = biological target: T2, ROS 17/2.8 cells (Rattus norvegicus, UniProt P25961); settings: position-20 substitutions in PTH(1-31)NH2; cited from earlier work
T2 construct: ROS 17/2.8 cells are rat osteosarcoma cells and express the endogenous PTHR; host or cells: ROS 17/2.8 cells
T2 sequence (P25961 27-591): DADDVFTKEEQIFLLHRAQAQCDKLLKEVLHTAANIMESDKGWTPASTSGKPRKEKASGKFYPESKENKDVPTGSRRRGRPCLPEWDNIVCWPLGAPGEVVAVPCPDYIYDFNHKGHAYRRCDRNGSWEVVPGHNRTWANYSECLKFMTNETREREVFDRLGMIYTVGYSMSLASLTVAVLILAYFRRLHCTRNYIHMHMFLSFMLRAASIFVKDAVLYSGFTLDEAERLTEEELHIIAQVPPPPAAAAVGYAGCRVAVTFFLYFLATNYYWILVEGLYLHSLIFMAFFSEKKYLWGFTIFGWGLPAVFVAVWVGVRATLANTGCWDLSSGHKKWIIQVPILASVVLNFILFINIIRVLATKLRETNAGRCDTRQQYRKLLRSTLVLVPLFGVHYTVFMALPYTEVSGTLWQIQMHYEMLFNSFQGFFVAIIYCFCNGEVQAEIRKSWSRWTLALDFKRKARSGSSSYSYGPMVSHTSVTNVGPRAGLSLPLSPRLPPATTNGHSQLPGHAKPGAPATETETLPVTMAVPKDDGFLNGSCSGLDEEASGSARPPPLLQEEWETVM

[1] = Circular dichroism spectroscopy, helical residues per peptide chain; format: physicochemical; settings: calculated from [θ]222
Summary of the method: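 CD spectra recorded at 20 °C, four scans averaged; peptide concentration checked by A280 with the single-Trp extinction coefficient of 5700 M^−1. Helical residues per chain calculated as −[θ]222×30/28,000 from mean residue ellipticity at 222 nm.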

[2] = [Ala1,Arg19]hPTH(1-31)NH2 analogs

IC50 (PTHR-delNt; hPTH(1-31)NH2 analogs) | CD helical residues ([1]; hPTH(1-31)NH2 analogs) | reduction (alteration) of binding affinity for PTHR-delNt relative to parent peptide (PTHR-delNt; COS-7 membranes, versus the respective parent peptide) | IC50 (PTHR-delNt; [2]) | CD helical residues [1, 2] | Molecule | reduction of cAMP-stimulating potency (ROS 17/2.8 cells) | effect on binding to PTHR-delNt (in words) (PTHR-delNt; COS-7 membranes)
10.6 µM | 9 |  |  |  | CC[C@H](C)[C@H](NC(=O)[C@H](CCC(=O)O)NC(=O)[C@H](CO)NC(=O)[C@@H](NC(=O)[C@@H](N)CO)C(C)C)C(=O)N[C@@H](CCC(N)=O)C(=O)N[C@@H](CC(C)C)C(=O)N[C@@H](CCSC)C(=O)N[C@@H](Cc1c[nH]cn1)C(=O)N[C@@H](CC(N)=O)C(=O)N[C@@H](CC(C)C)C(=O)NCC(=O)N[C@@H](CCCCN)C(=O)N[C@@H](Cc1c[nH]cn1)C(=O)N[C@@H](CC(C)C)C(=O)N[C@@H](CC(N)=O)C(=O)N[C@@H](CO)C(=O)N[C@@H](CCSC)C(=O)N[C@@H](CCC(=O)O)C(=O)N[C@@H](CCCNC(N)=O)C(=O)N[C@H](C(=O)N[C@@H](CCC(=O)O)C(=O)N[C@@H](Cc1c[nH]c2ccccc12)C(=O)N[C@@H](CC(C)C)C(=O)N[C@@H](CCCNC(=N)N)C(=O)N[C@@H](CCCCN)C(=O)N[C@@H](CCCCN)C(=O)N[C@@H](CC(C)C)C(=O)N[C@@H](CCC(N)=O)C(=O)N[C@@H](CC(=O)O)C(=O)N[C@H](C(N)=O)C(C)C)C(C)C [Arg^20→Cit] | 8 fold | 
 |  | less than three-fold | 0.974 ± 0.252 µM | 5 | AVSEIQLMHNLGKHLNSMRRVEWLRKKEQDV-NH2 [Leu^28→Glu] |  | only mildly impaired binding to PTHR-delNt
4.58 µM | 10 |  |  |  | SVSEIQLMHNLGKHLNAMERVEWLRKKLQDV-NH2 [Ser^17→Ala] |  | 
8.8 µM | 10 |  |  |  | SVSEIQLMHNLGKHLNSAERVEWLRKKLQDV-NH2 [Met^18→Ala] |  | 
1.54 µM | 10 |  |  |  | SVSEIQLMHNLGKHLNSMERVEWLRKKLQAV-NH2 [Asp^30→Ala] |  | 
